Test results published in US9228015B2, “Nogo receptor antagonists and methods of increasing neurite outgrowth” (Biogen Idec MA Inc., priority 2006, dated 2016).

What was measured:
7E11 [1] = test: Epitope mapping: 7E11 binding to protease digest peptides of NgR1; set-up: species or system murine; conditions: trypsin or Asp-N digest, MS analysis
Excerpt: The 7E11 binding site was further analyzed by testing tryptic peptide digests of sNgR310. […] 7E11 bound only a single tryptic digest peptide, providing additional evidence that 7E11 binds to a single epitope on NgR1. Subsequent mass spectroscopy (MS) and sequence analyses identified the bound peptide to be […] (SEQ ID NO: 26).
The […] peptide (SEQ ID NO: 1) was subjected to further mapping analysis. The peptide was digested with trypsin, which yielded two major fragments, […] (SEQ ID NO: 27) and VVDPTT (SEQ ID NO: 28), and the ability of 7E11 to bind them was tested. […] Within this peptide fraction, detailed MS analysis identified several scrambled peptides that also bound 7E11, including peptides with deamination at Asn115 and Gln117, addition of Alanine at 112 or 113, or addition of Serine at 114 (Table 3).
The […] (SEQ ID NO:1) peptide was also digested with the endoprotease Asp-N and 7E11 binding was tested. Endoprotease Asp-N cleaved the peptide into 3 peptide fragments, L, DLS and […] (SEQ ID NO: 36). Of these products, 7E11 bound the […] (SEQ ID NO:36) peptide. Taken together, the trypsin and Asp-N cleavage data further localize the 7E11 binding epitope to the sequence shared between them, DNAQLR (SEQ ID NO: 37).

7E11 [2] = test: 7E11 binding to immobilized point-mutant peptides (MaxiSorp plate, serial dilutions of 7E11); set-up: species or system murine; conditions: 7E11 binding to immobilized peptide
Excerpt: To verify these contact points, several peptides containing point mutations within the […] sequence (SEQ ID NO: 27) were generated and tested for 7E11 binding. The peptides were immobilized on a MaxiSorp™ plate (Nunc™) and serial dilutions of 7E11 were applied. […] The most significant change in EC50 was observed when Arg 119 was mutated to Alanine.

[3] = system: NogoA, NogoB, NogoC, MAG and OM-gp binding to Nogo receptor-1; test: Soluble Nogo receptors block ligand binding to Nogo receptor-1

peptide bound by 7E11 (7E11 [1]) | increase of EC50 relative to the original peptide (7E11 [2]) | Molecule | other results
bound |  | AAAFTGLTLLEQLDLSDNAQLR (Rattus) [tryptic digest peptide of sNgR310] | 
bound |  | DNAQLRVVDPTT (sequence also found in Rattus; listed as Homo Sapiens) | 
 | 30 fold | LDLSDNAALRVVDPTT [Q117A] | 
 | 25 fold | LDLSDNAQLHVVDPTT [R119H] | 
bound |  | LDLSDNAQLR (sequence also found in Rattus; listed as Homo Sapiens) | 
 |  | sNogoR344: soluble Nogo receptor-1 polypeptide, residues 26-344 of SEQ ID NOs: 6 and 8 or 27-344 of SEQ ID NO: 8 (protein, listed as Homo sapiens) PCPGACVCYNEPKVTTSCPQQGLQAVPVGIPAASQRIFLHGNRISHVPAASFRACRNLTILWLHSNVLARIDAAAFTGLALLEQLDLSDNAQLRSVDPATFHGLGRLHTLHLDRCGLQELGPGLFRGLAALQYLYLQDNALQALPDDTFRDLGNLTHLFLHGNRISSVPERAFRGLHSLDRLLLHQNRVAHVHPHAFRDLGRLMTLYLFANNLSALPTEALAPLRALQYLRLNDNPWVCDCRARPLWAWLQKFRGSSSEVPCSLPQRLAGRDLKRLAANDLQGCAVATGPYHPIWTGRATDEEPLGLPKCCQPDAADKA | block of binding of NogoA, NogoB, NogoC, MAG and OM-gp to Nogo receptor-1 [3]: block
